Tested on: beta-TC6 cells
Experiment: Insulin HTRF assay, relative activity Ar normalized to sunitinib
Type: cell-based
Conditions: Mus musculus, normalized to positive control sunitinib (5 µM = 100%), Table 10
Outline: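 beta-TC6 cells (15k/well) were seeded for 24 or 48 h, washed and exposed to test compound or sunitinib (5 µM f.c.) in induction buffer with 0.5% DMSO for 2, 3 or 4 h at 37°C. Secreted insulin in the supernatant was measured by two-antibody HTRF after 120 min at RT. Ar = (V − 0% control)/(100% control − 0% control) × 100.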

SMILES | Emax [%]
COc1ccc(-c2cnc3cnc(-c4cccc(C(N)=O)c4)cn23)cn1 [compound 383, 3-[3-(6-methoxy-3-pyridyl)imidazo[1,2-a]pyrazin-6-yl]benzamide] | 20 to 50
Cn1cc(-c2ccc3nnc(-c4ccc5c(c4)OCO5)n3c2)cn1 [compound 174, 3-(1,3-benzodioxol-5-yl)-6-(1-methylpyrazol-4-yl)-[1,2,4]triazolo[4,3-a]pyridine] | 50 to 100
CC(C(=O)Nc1cnc2cnc(-c3cccc([N+](=O)[O-])c3)cn12)c1ccccc1 (stereo not drawn) [compound 271, N-[6-(3-nitrophenyl)imidazo[1,2-a]pyrazin-3-yl]-2-phenyl-propanamide] | 20 to 50
CN(C)c1cccc(-c2ccc3nnc(-c4cscn4)n3c2)c1 [compound 227, N,N-dimethyl-3-(3-thiazol-4-yl-[1,2,4]triazolo[4,3-a]pyridin-6-yl)aniline] | 50 to 100
OCc1ccc(-c2ccc3nnc(-c4ccncc4)n3c2)cc1 [compound 179, [4-[3-(4-pyridyl)-[1,2,4]triazolo[4,3-a]pyridin-6-yl]phenyl]methanol] | 20 to 50
CC(=O)Nc1cccc(-c2cn3c(-c4ccc(C(=O)N(C)C)cc4)cnc3cn2)c1 [compound 432, 4-[6-(3-acetamidophenyl)imidazo[1,2-a]pyrazin-3-yl]-N,N-dimethyl-benzamide] | 20 to 50
c1cc(-c2cn3c(-c4ccc5c(c4)OCO5)cnc3cn2)cs1 [compound 301, 3-(1,3-benzodioxol-5-yl)-6-(3-thienyl)imidazo[1,2-a]pyrazine] | 50 to 100
Cn1ccc2cc(-c3cnc4cnc(-c5cccc(C(=O)NCCO)c5)cn34)ccc21 [compound 399, N-(2-hydroxyethyl)-3-[3-(1-methylindol-5-yl)imidazo[1,2-a]pyrazin-6-yl]benzamide] | 20 to 50
c1ccc(Oc2ccccc2-c2cn3c(-c4ccncc4)cnc3cn2)cc1 [compound 311, 6-(2-phenoxyphenyl)-3-(4-pyridyl)imidazo[1,2-a]pyrazine] | 20 to 50
Cc1ccccc1-c1cnc2cnc(-c3cccs3)cn12 [compound 405, 3-(o-tolyl)-6-(2-thienyl)imidazo[1,2-a]pyrazine] | 10 to 20
FC(F)(F)Oc1ccc(-c2cn3c(-c4cccs4)cnc3cn2)cc1 [compound 418, 3-(2-thienyl)-6-[4-(trifluoromethoxy)phenyl]imidazo[1,2-a]pyrazine] | 20 to 50
CN(C)CCCOc1ccc(-c2cn3c(-c4ccc(N(C)C)cc4)cnc3cn2)cn1 [compound 281, 4-[6-[6-[3-(dimethylamino)propoxy]-3-pyridyl]imidazo[1,2-a]pyrazin-3-yl]-N,N-dimethyl-aniline] | 50 to 100
O=C(NCCO)c1cccc(-c2cn3c(-c4cccs4)cnc3cn2)c1 [compound 420, N-(2-hydroxyethyl)-3-[3-(2-thienyl)imidazo[1,2-a]pyrazin-6-yl]benzamide] | 20 to 50
CC(=O)c1ccc(-c2cn3c(-c4ccc(C(=O)NC5CC5)cc4)cnc3cn2)s1 [compound 434, 4-[6-(5-acetyl-2-thienyl)imidazo[1,2-a]pyrazin-3-yl]-N-cyclopropyl-benzamide] | 20 to 50
CC(=O)c1cccc(-c2cnc3cnc(-c4ccc(C(=O)NCCN(C)C)cc4)cn23)c1 [compound 411, 4-[3-(3-acetylphenyl)imidazo[1,2-a]pyrazin-6-yl]-N-(2-dimethylaminoethyl)benzamide] | 20 to 50
Cn1ccc2cc(-c3cnc4cnc(-c5cccc(C(N)=O)c5)cn34)ccc21 [compound 401, 3-[3-(1-methylindol-5-yl)imidazo[1,2-a]pyrazin-6-yl]benzamide] | 20 to 50
COc1ccc(-c2nnc3ccc(-c4ccc(S(C)(=O)=O)cc4)cn23)cc1OC [compound 186, 3-(3,4-dimethoxyphenyl)-6-(4-methylsulfonylphenyl)-[1,2,4]triazolo[4,3-a]pyridine] | 10 to 20
COc1ccc(-c2ccc3nnc(-c4ccoc4)n3c2)cc1 [compound 220, 3-(3-furyl)-6-(4-methoxyphenyl)-[1,2,4]triazolo[4,3-a]pyridine] | 50 to 100

Reference: EP2818471A1, “Nitrogen bicyclic compounds as inhibitors for Scyl1 and Grk5” (Max-Planck-Gesellschaft zur Förderung der Wissenschaften …, priority 2013, dated 2014)
